The text below walks through data of PubChem BioAssay (NCI).

Where “and” joins values, the source holds several entries; their conditions need not be identical. Identical values can stand only once.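 Five compound concentrations were applied to cells in 96-well plates for 48 hours; endpoints were derived by simple linear interpolation of the resulting dose-response curve. At the GI50, growth is halved. Definition used: TGI = concentration required for complete inhibition of growth.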

Experiment in all cases: DTP human tumour cell line panel, 48 h
Assay [1] deals with IGROV1 ovarian.
Assay [2] has as its system OVCAR-8 ovarian.
The test system of assay [3] is SF-539 CNS.
Assay [4] has as its system KM12 colon.
In assay [5] the test system is NCI-H522 lung.
The subject of assay [6] is HOP-62 NSCLC.
For assay [7], the system named is SNB-75 CNS.
Assay [8] has as its system UO-31 renal.
Assay [9] has as its system SK-OV-3 ovarian.
The test system of assay [10] is NCI/ADR-RES ovarian.

In the case of `COc1ccc(/C=C/C(=O)c2c(-c3ccccc3)nn(C)c(=O)c2N2CC2C)cc1` (stereo not drawn), the TGI in assay [1] was greater than 100 µM; in [2] it was greater than 100 µM; in [3] it was greater than 100 µM; in [4] it was greater than 100 µM; in assay [5] it was 67.1 µM; in assay [6], greater than 100 µM. Moreover, the total growth inhibition concentration (TGI) in assay [7] was 73.9 µM; in assay [8], greater than 100 µM; in assay [9] it was 71.3 µM.
Regarding `O=P(CN1CCOCC1)(c1ccccc1)c1ccccc1`, the TGI in assay [1], in assay [2], in assay [3], in assay [4], in assay [5] and in [6] was greater than 100 µM each time. In addition, the TGI in assay [7], in assay [8] and in assay [9] was greater than 100 µM in each case.
As to `CN(C)CCCN1c2ccccc2Sc2ccc(C(F)(F)F)cc21`, the GI50 in [1] is 1.67 µM; in [2], 1.73 µM; in [3], 1.83 µM; in assay [10], 1.66 µM; in assay [4], 1.65 µM; in assay [5] it was 1.39 µM. Besides, the figures for the GI50 in assay [7], in assay [8] and in assay [9] were 1.32 µM, 1.48 µM and 1.53 µM, respectively. Also, the TGI is 3.31 µM and 29.3 µM and 30.1 µM in [1]; 3.33 µM and 30 µM in assay [2]; 3.42 µM and 31.1 µM in assay [10]; 3.51 µM and 26 µM and 24.8 µM in assay [7]; 5.38 µM and 28.3 µM and 28.9 µM in [8].
With `CCCCCCCCCCCC/C=C\CC[C@@H](O)[C@H](O)CC[C@H](O)[C@@H]1CC[C@@H](CCCCCCCC2=C[C@H](C)OC2=O)O1`, the GI50 is 7.09 µM in assay [1]; 8.16 µM in assay [2]; 7.19 µM in assay [10]; 12.9 µM in [4]; 12.8 µM in [7]; 12.4 µM in [8]. Moreover, the total growth inhibition concentration (TGI) is 28.1 µM in assay [1]; 38 µM in assay [2]; 27.8 µM in [10]; 46 µM in [4]; 25.9 µM in [5]; 29.1 µM in assay [7]. Besides, the TGI in [8] is 9.26 µM and 41.9 µM.
As for `O=C(/C=C/c1ccccc1)c1ccc(Cl)cc1Cl`, the TGI in [1] is 40.5 µM; in assay [2], 28.4 µM; in assay [3], 37.9 µM; in assay [4], 34.2 µM; in assay [5], 28.3 µM; in assay [6], greater than 100 µM. The figures for the concentration for total growth inhibition (TGI) in [7], in assay [8] and in assay [9] were 92.7 µM, greater than 100 µM and 85.3 µM, respectively.
For `FC(F)(F)c1ccccc1C1SCc2nc3ccccc3n21` (stereo not drawn), the TGI in assay [1], in assay [2], in [3], in [4], in assay [5] and in [7] was greater than 100 µM each time. Moreover, the TGI in assay [8] and in assay [9] was greater than 100 µM each time.
As to `Cc1cc(Cl)ccc1N=C1NC(=O)C(CC(=O)Nc2cccc(Cl)c2)S1` (stereo not drawn), the total growth inhibition concentration (TGI) in assay [1], in [2], in assay [3], in [4], in assay [5] and in assay [6] was greater than 100 µM in each case. Besides, the concentration for total growth inhibition (TGI) in assay [7], in assay [8] and in [9] was greater than 100 µM each time.
In the case of `N=C(N)c1ccc2oc3ccc(C(=N)N)cc3c(=O)c2c1`, the total growth inhibition concentration (TGI) in [1], in assay [2], in [3], in assay [10], in assay [4] and in assay [5] was greater than 100 µM each time. The TGI in [7] and in assay [8] was greater than 100 µM throughout.
On to `COC1C(OC(=O)c2ccc(C)[nH]2)C(O)C(Oc2ccc3c(O)c(NC(=O)c4ccc(O)c(CC=C(C)C)c4)c(=O)oc3c2Cl)OC1(C)C` (stereo not drawn), for which the TGI in [1] is 39.2 µM; in assay [2], 52 µM; in assay [3], 38.1 µM; in assay [4], 26.1 µM; in assay [5], 29.8 µM; in [6], 33.4 µM. Moreover, the TGI was determined as 72.9 µM in [7] and 54.6 µM in assay [9].
With `Cc1cc(N(CCC#N)CCC#N)ccc1/C=C(\NC(=O)/C=C/c1ccccc1)C(=O)Nc1ccccc1Cl`, the total growth inhibition concentration (TGI) in [1], in assay [2], in assay [3], in [4] and in assay [8] was greater than 100 µM each time.
Turning to `COc1cc2c(oc(=O)c3c4occc4cc(OC)c23)c2cccc(O)c12`, the TGI in assay [1], in assay [2], in assay [3], in assay [4], in assay [5] and in [6] was greater than 100 µM in each case. The TGI in [7], in assay [8] and in assay [9] was greater than 100 µM in each case.
On to `CC(C)(O)C1COC2=C1C(=O)c1ccccc1C2=O` (stereo not drawn), for which the concentration for total growth inhibition (TGI) in [1] is greater than 100 µM; in [2], 84.6 µM; in assay [3], greater than 100 µM; in assay [10], 62.1 µM; in assay [4], greater than 100 µM; in assay [5] it was greater than 100 µM. For the same compound, the concentration for total growth inhibition (TGI) in assay [7] is 82 µM; in assay [8] it was greater than 100 µM; in assay [9] it was greater than 100 µM.
On to `O=C(N/C(=C\c1ccc([N+](=O)[O-])cc1)c1nc2ccccc2s1)c1ccccc1`, for which the concentration for total growth inhibition (TGI) in assay [1] is greater than 100 µM; in assay [2], 64.2 µM; in [3], 55.1 µM; in [4], 92.1 µM; in assay [6], greater than 100 µM; in assay [7] it was 63.5 µM. For the same compound, the TGI was 56.3 µM in assay [8] and greater than 100 µM in [9].
Turning to `CCOc1ccc(C2=NN(CC)C(=O)C(C3C(=O)N(c4ccccc4)N=C3C)C2)cc1` (stereo not drawn), the TGI in assay [1], in [2], in assay [3], in assay [4], in assay [5] and in assay [6] was greater than 100 µM each time. For the same compound, the TGI in assay [8] and in [9] was greater than 100 µM in each case.
With `CC1NOC(=O)C1N=Nc1cccc(Cl)c1` (stereo not drawn), the TGI was greater than 100 µM in assay [1]; greater than 100 µM in assay [2]; greater than 100 µM in assay [3]; greater than 100 µM in [4]; 62.8 µM in assay [5]; greater than 100 µM in assay [6]. The TGI was 92.2 µM in assay [7], greater than 100 µM in [8] and 96.1 µM in assay [9].
For `COC(=O)C1=NC(=S)NC(c2ccccc2)C1c1nc2ccccc2o1` (stereo not drawn), the concentration for total growth inhibition (TGI) in [1], in assay [2], in assay [3], in assay [4], in assay [5] and in assay [6] was greater than 50 µM throughout. In addition, the TGI in assay [8] and in assay [9] was greater than 50 µM each time.
With `CCOc1ccc(NC(=O)CC2SC(=Nc3ccc(C)cc3)NC2=O)cc1` (stereo not drawn), the TGI in assay [1], in assay [2], in assay [3], in [4], in assay [5] and in [6] was greater than 100 µM in each case. The total growth inhibition concentration (TGI) in [7], in assay [8] and in assay [9] was greater than 100 µM each time.
Take `CC(C)(C)N/N=C(/Cc1nc2c3c(ccc2[nH]c1=O)C(=O)c1ccccc1C3=O)C(=O)NC1=C(Cl)C(=O)c2ccccc2C1=O`: the TGI in assay [1] is greater than 100 µM; in assay [2] it was 98.6 µM; in assay [3], greater than 100 µM; in assay [10], 45.1 µM; in assay [4] it was 8.83 µM; in [5], greater than 100 µM. Further, the TGI in assay [7] is 9.03 µM; in assay [8], greater than 100 µM; in assay [9], greater than 100 µM.
In the case of `COC(=O)Cc1cc(=O)n2c3ccccc3n(C)c2c1C#N`, the TGI in assay [1], in assay [2], in assay [3], in [4], in [6] and in assay [7] was greater than 100 µM in each case. Besides, the total growth inhibition concentration (TGI) in assay [8] and in assay [9] was greater than 100 µM in each case.
As for `C=CCNC(=S)NNC(=O)c1c(C)nc2sccn12`, the concentration for total growth inhibition (TGI) in [1], in [2], in assay [3], in assay [4], in assay [5] and in [6] was greater than 100 µM in each case. In assay [9], this compound came in with a TGI greater than 100 µM.
Regarding `COc1cc(N=Nc2cc(Cc3ccc(N(C)C)cc3)c(N)cc2N(C)C)c2ncccc2c1`, the concentration for 50% growth inhibition (GI50) in assay [1] was 0.364 µM; in assay [2], 0.387 µM; in [3], 0.705 µM; in assay [10], 0.338 µM; in assay [4] it was 0.646 µM; in assay [5], 0.398 µM. The GI50 in assay [7] is 0.574 µM; in [8], 0.252 µM; in assay [9], 0.406 µM. The TGI in assay [1] stood at 1.57 µM; in [2], 2.19 µM; in assay [3], 2.06 µM; in assay [10] it was 1.57 µM; in assay [4], 2.31 µM; in assay [5], 2.23 µM. Moreover, the total growth inhibition concentration (TGI) in assay [7] was 2.04 µM; in [8] it was 1.97 µM; in assay [9], 8.17 µM.
With `COC(=O)CC1(O)C(=O)OCc2c1cc1n(c2=O)Cc2c-1nc1ccccc1c2OC` (stereo not drawn), the TGI in [1] is greater than 74.3 µM; in assay [2], greater than 28.5 µM; in assay [3], 0.681 µM; in assay [4] it was greater than 100 µM; in [5] it was 16.3 µM; in [6], 0.358 µM. Also, the total growth inhibition concentration (TGI) in assay [7] was determined as 3.56 µM; in assay [8], 30.5 µM; in [9], 17.4 µM.
For the compound `CC(=O)CCC1(c2ccccc2)OC(=O)C(C#N)=C1c1ccccc1` (stereo not drawn), the TGI is greater than 100 µM in [1]; greater than 100 µM in [2]; greater than 100 µM in assay [3]; greater than 100 µM in assay [4]; 4.53 µM in [5]; greater than 100 µM in assay [6]. The TGI in assay [7] was 74.1 µM; in [8] it was greater than 100 µM; in assay [9] it was greater than 100 µM.
In the case of `COC(=O)C(=O)C(C(=O)C(=O)Nc1ccc([N+](=O)[O-])cc1)c1nc2ccccc2[nH]c1=O` (stereo not drawn), the total growth inhibition concentration (TGI) in [1], in assay [2], in [4], in assay [5], in assay [6] and in assay [7] was greater than 100 µM each time. The TGI in [8] and in [9] was greater than 100 µM throughout.
With `CCCC1C[C@H]2CCCCN2[C@H]2CCCN12` (stereo partly drawn), the concentration for total growth inhibition (TGI) in assay [1], in assay [2], in [3], in assay [4], in assay [5] and in assay [6] was greater than 100 µM each time. Besides, the TGI in assay [7], in assay [8] and in assay [9] was greater than 100 µM throughout.
With `O=S(=O)(c1ccccc1)N1CCCC(c2ccccc2)CC1` (stereo not drawn), the TGI in assay [1], in assay [2], in [3], in assay [10], in assay [4] and in [5] was greater than 100 µM in each case. Moreover, the TGI in [7] is 94.6 µM; in [8], greater than 100 µM.
Consider `CC(C)c1ccc(O)c(Cc2cc(C(C)C)cc(Cc3cc(C(C)C)ccc3O)c2O)c1`, for which the TGI was 6.54 µM in assay [1]; 4.18 µM in assay [2]; 3.74 µM in assay [4]; 2.92 µM in assay [5]; 3.26 µM in [6]; 5.03 µM in [7]. Besides, the TGI in [8] stood at 3.04 µM; in assay [9], 3.05 µM.
`COc1ccc(/C=C/C(=N\NC(=O)c2ccccc2)c2sc(Nc3ccc([N+](=O)[O-])cc3)nc2C)cc1OC`: the concentration for total growth inhibition (TGI) in assay [2] turned out to be 27 µM; in [3] it was 69.8 µM; in assay [4] it was 47.5 µM; in [5], 17.4 µM; in assay [6], 49.9 µM; in [7], 17.8 µM. In addition, the TGI in [8] is 56.6 µM; in assay [9] it was greater than 100 µM.
